Patent publication US20130053434A1, “IRREVERSIBLE INHIBITORS USEFUL FOR THE TREATMENT OF KINASE-RELATED PATHOLOGIES” (CENTRE NATIONAL DE LA RECHERCHE SCIENTIFIQUE, priority 2009, published 2013)

Experiments:
KIT = KIT (Homo sapiens, UniProt P10721); test: panel of 402 kinases: KIT; assay type: binding; conditions: read-out: residual activity relatively to control
Procedure: (§1) Two representative library members (1afh and 1bgi) were then evaluated in a larger panel of kinases (402) using the technology described by Lockhart et al. (M. A. Fabian, et al., Nat. Biotechnol. 2005, 23, 329-336; M. W. Karaman, et al., Nat. Biotechnol. 2008, 26, 127-132). In this panel, 31 kinases out of the 46 kinases bioinformatically identified by Santi and coworkers are present along with numerous other kinases bearing a cysteine residue at other positions within the ATP-binding pocket (J. Zhang, P. L. Yang, N. S. Gray, Nat. Rev. Cancer 2009, 9, 28-39).
(§2) The selectivity profile was measure using the KinomeScan™ technology (http://www.kinomescan.com/) based on active-site dependent competition binding assay (Karaman, M. W., et al. (2008) Nat. Biotechnol. 26, 127-32; Fabian, M. A., et al. (2005) Nat. Biotechnol. 23, 329-36). Compounds 3 and 5 were profiled against a panel of 50 kinases including 42 kinases from the group of 48 kinases predicted by Santi et al. (Schirmer, A., et al. (2006) Proc. Natl. Acad. Sci. USA 103, 4234-9) to be targeted by hypothemycin and 5 mutants of FLT3 as well as 3 mutants of KIT. Both compounds were assayed at 1 μM. The results are expressed as a percentage of signal between a negative (DMSO) and positive (know binder) control [(test compound−positive control)/([…])×100].

Flt3 = target: T1, Flt3 (Homo sapiens, UniProt P36888); test: panel of 402 kinases: Flt3; assay type: binding; conditions: read-out: residual activity relatively to control
T1 construct: purchased KinomeScan
Procedure: as §1, §2

KIT V559D, V654A = KIT V559D, V654A (Homo sapiens, UniProt P10721, V559D/V654A); test: kinase mutants: KIT V559D, V654A; assay type: binding; conditions: dual mutation conferring resistance to imatinib
Sequence of KIT V559D, V654A (P10721 26-976 V559D/V654A): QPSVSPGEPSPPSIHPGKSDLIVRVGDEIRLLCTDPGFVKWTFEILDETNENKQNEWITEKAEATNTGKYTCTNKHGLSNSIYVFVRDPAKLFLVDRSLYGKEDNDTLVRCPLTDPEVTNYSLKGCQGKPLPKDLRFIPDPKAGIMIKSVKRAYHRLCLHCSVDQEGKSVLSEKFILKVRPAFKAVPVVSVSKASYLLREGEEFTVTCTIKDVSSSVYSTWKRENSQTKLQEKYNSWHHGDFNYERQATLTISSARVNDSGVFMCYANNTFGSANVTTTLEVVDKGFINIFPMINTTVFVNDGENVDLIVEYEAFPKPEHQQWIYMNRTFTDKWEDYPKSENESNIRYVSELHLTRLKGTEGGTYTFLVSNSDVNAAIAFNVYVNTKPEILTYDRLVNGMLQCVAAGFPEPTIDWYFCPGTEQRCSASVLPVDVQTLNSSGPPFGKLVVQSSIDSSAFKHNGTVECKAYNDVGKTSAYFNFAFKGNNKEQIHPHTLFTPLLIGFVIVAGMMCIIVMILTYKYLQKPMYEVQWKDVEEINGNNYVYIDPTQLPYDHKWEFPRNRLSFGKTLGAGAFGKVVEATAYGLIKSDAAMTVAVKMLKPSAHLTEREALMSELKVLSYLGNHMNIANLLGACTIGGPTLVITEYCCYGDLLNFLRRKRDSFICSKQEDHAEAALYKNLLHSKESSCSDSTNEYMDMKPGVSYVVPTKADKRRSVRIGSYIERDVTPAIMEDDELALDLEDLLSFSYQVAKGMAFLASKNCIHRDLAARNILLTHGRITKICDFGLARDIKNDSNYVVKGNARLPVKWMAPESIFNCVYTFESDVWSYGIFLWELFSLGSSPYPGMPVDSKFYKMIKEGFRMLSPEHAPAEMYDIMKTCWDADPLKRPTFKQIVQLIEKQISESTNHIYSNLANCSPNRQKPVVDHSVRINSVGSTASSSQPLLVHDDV
Procedure: as §1
(§3) The two compounds were also evaluated against a series of mutations of Flt3 and KIT. It is known that several mutation in Flt3 lead to a gain of function or constitutive activity.

NLK = target: T2, NLK (Homo sapiens, UniProt Q9UBE8); test: panel of 402 kinases: NLK; assay type: binding; conditions: 1 μM
T2 construct: purchased KinomeScan
Procedure: as §1, §2

panel of kinases (402) = test: larger panel of kinases (402), competition binding, whole panel; conditions: 1 μM
Procedure: as §1, §2

MEK2 = target: T3, MEK2 (Homo sapiens, UniProt P36507); test: panel of 402 kinases: MEK2; assay type: binding; conditions: read-out: residual activity relatively to control
T3 construct: purchased KinomeScan
Procedure: as §1, §2

KIT D816V = KIT D816V (Homo sapiens, UniProt P10721, D816V); test: kinase mutants: KIT D816V; assay type: binding; conditions: gain of function mutation
Sequence of KIT D816V (P10721 26-976 D816V): as the sequence (P10721 26-976 V559D/V654A) above, with D534V, A629V, D791V counted along it
Procedure: as §1, §3

ERK1 = target: T4, ERK1 (Homo sapiens, UniProt P27361); test: panel of 402 kinases: ERK1; assay type: binding; conditions: 1 μM
T4 construct: purchased KinomeScan
Procedure: as §1, §2

KIT L576P = KIT L576P (Homo sapiens, UniProt P10721, L576P); test: kinase mutants: KIT L576P; assay type: binding; conditions: gain of function mutation
Sequence of KIT L576P (P10721 26-976 L576P): as the sequence (P10721 26-976 V559D/V654A) above, with D534V, L551P, A629V counted along it
Procedure: as §1, §3

KIT V559D, T670I = KIT V559D, T670I (Homo sapiens, UniProt P10721, T670I/V559D); test: kinase mutants: KIT V559D, T670I; assay type: binding; conditions: dual mutation conferring resistance to imatinib
Sequence of KIT V559D, T670I (P10721 26-976 V559D/T670I): as the sequence (P10721 26-976 V559D/V654A) above, with A629V, T645I counted along it
Procedure: as §1, §3

GAK = target: T5, GAK (Homo sapiens, UniProt O14976); test: panel of 402 kinases: GAK; assay type: binding; conditions: read-out: residual activity relatively to control
T5 construct: purchased KinomeScan
Procedure: as §1, §2

TGFR2 = target: T6, TGFR2 (Homo sapiens, UniProt P37173); test: panel of 402 kinases: TGFR2; assay type: binding; conditions: read-out: residual activity relatively to control
T6 construct: purchased KinomeScan
Procedure: as §1, §2

MKNK1 = target: T7, MKNK1 (Homo sapiens, UniProt Q9BUB5); test: panel of 402 kinases: MKNK1; assay type: binding; conditions: read-out: residual activity relatively to control
T7 construct: purchased KinomeScan
Procedure: as §1, §2

Flt3 K663Q = Flt3 K663Q (Homo sapiens, UniProt P36888, K663Q); test: kinase mutants: Flt3 K663Q; assay type: binding; conditions: gain of function mutation
Procedure: as §1, §3

CDKL5 = target: T8, CDKL5 (Homo sapiens, UniProt O76039); test: panel of 402 kinases: CDKL5; assay type: binding; conditions: 1 μM
T8 construct: purchased KinomeScan
T8 sequence (O76039 whole entry): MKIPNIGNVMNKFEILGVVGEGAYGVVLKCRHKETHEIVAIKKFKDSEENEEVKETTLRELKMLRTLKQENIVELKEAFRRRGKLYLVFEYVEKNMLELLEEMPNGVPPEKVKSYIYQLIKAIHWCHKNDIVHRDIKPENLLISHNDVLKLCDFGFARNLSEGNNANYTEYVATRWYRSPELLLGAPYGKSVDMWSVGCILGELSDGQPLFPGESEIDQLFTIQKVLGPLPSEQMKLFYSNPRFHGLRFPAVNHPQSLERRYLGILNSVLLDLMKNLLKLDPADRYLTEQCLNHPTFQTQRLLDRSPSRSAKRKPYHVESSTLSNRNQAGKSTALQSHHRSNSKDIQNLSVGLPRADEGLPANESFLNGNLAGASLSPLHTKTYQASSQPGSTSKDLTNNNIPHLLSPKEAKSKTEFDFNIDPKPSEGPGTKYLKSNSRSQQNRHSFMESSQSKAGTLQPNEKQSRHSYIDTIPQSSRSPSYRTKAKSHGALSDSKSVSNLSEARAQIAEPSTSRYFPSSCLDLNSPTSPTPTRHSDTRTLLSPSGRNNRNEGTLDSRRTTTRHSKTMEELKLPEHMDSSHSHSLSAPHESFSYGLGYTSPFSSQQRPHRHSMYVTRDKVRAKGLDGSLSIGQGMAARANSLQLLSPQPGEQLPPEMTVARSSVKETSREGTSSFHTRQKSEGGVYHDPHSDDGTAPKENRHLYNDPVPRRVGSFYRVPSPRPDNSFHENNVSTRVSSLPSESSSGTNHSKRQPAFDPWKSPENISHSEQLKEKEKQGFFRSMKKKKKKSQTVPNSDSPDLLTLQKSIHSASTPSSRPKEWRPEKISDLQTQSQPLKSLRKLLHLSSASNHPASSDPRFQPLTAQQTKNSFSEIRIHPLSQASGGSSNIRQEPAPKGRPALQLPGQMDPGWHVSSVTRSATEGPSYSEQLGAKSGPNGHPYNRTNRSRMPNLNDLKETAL
Procedure: as §1, §2

GSK3β = GSK3β (Homo sapiens, UniProt P49841); test: panel of 402 kinases: GSK3β; assay type: binding; conditions: 1 μM
Sequence of GSK3β (P49841 whole entry, species assumed): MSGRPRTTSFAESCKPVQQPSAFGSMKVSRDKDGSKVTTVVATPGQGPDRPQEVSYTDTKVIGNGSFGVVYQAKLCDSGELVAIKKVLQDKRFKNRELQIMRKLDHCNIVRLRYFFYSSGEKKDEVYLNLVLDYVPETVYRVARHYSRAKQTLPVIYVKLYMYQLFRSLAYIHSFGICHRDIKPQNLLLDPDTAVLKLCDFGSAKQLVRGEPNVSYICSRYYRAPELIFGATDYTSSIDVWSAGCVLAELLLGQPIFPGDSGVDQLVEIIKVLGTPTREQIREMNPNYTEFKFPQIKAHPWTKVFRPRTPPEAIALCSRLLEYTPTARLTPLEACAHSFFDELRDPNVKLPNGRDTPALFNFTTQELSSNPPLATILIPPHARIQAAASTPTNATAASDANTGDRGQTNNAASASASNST
Procedure: as §1, §2

Flt3 N841L = test: kinase mutants: Flt3 N841L; assay type: binding; conditions: gain of function mutation
Procedure: as §1, §3

PDGFRβ = target: T9, PDGFRβ (Homo sapiens, UniProt P09619); test: panel of 402 kinases: PDGFRβ; assay type: binding; conditions: read-out: residual activity relatively to control
T9 construct: purchased KinomeScan
T9 sequence (P09619 33-1106): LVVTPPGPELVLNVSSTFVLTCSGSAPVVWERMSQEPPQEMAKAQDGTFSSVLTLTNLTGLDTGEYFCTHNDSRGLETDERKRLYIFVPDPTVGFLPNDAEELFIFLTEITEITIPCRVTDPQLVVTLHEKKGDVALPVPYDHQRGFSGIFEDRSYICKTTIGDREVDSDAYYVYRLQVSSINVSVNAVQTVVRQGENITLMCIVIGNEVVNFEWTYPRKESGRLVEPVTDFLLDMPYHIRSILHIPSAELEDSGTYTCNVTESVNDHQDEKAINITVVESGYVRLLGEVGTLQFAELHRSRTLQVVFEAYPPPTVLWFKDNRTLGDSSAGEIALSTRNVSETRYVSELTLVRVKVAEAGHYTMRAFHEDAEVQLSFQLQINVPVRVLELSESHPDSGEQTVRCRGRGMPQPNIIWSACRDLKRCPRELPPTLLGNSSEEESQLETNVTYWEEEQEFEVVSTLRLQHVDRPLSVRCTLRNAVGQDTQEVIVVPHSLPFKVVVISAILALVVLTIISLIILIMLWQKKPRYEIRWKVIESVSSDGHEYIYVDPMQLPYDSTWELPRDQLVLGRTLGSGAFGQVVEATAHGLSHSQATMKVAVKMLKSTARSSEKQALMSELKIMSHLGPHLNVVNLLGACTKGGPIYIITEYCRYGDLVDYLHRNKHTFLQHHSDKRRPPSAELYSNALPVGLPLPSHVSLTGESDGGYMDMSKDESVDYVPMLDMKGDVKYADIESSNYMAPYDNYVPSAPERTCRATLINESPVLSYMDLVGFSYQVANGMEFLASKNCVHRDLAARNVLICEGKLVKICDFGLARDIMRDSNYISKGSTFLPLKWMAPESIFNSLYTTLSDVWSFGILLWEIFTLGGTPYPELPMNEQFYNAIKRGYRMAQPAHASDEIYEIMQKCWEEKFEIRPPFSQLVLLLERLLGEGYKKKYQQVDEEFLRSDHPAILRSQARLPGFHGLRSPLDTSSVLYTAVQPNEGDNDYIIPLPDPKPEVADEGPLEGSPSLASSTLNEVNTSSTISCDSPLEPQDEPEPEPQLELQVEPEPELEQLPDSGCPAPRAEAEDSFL
Procedure: as §1, §2

KIT V559D = KIT V559D (Homo sapiens, UniProt P10721, V559D); test: kinase mutants: KIT V559D; assay type: binding; conditions: gain of function mutation
Sequence of KIT V559D (P10721 26-976 V559D): as the sequence (P10721 26-976 V559D/V654A) above, with A629V counted along it
Procedure: as §1, §3

Flt1 = target: T10, Flt1 (Homo sapiens, UniProt P17948); test: panel of 402 kinases: Flt1; assay type: binding; conditions: read-out: residual activity relatively to control
T10 construct: purchased KinomeScan
Procedure: as §1, §2

PDGFRα = target: T11, PDGFRα (Homo sapiens, UniProt P16234); test: panel of 402 kinases: PDGFRα; assay type: binding; conditions: read-out: residual activity relatively to control
T11 construct: purchased KinomeScan
Procedure: as §1, §2

PRP4 = target: T12, PRP4 (Homo sapiens, UniProt Q13523); test: panel of 402 kinases: PRP4; assay type: binding; conditions: 1 μM
T12 construct: purchased KinomeScan
Procedure: as §1, §2

NIK = target: T13, NIK (Homo sapiens, UniProt Q99558); test: panel of 402 kinases: NIK; assay type: binding; conditions: 1 μM
T13 construct: purchased KinomeScan
T13 sequence (Q99558 whole entry): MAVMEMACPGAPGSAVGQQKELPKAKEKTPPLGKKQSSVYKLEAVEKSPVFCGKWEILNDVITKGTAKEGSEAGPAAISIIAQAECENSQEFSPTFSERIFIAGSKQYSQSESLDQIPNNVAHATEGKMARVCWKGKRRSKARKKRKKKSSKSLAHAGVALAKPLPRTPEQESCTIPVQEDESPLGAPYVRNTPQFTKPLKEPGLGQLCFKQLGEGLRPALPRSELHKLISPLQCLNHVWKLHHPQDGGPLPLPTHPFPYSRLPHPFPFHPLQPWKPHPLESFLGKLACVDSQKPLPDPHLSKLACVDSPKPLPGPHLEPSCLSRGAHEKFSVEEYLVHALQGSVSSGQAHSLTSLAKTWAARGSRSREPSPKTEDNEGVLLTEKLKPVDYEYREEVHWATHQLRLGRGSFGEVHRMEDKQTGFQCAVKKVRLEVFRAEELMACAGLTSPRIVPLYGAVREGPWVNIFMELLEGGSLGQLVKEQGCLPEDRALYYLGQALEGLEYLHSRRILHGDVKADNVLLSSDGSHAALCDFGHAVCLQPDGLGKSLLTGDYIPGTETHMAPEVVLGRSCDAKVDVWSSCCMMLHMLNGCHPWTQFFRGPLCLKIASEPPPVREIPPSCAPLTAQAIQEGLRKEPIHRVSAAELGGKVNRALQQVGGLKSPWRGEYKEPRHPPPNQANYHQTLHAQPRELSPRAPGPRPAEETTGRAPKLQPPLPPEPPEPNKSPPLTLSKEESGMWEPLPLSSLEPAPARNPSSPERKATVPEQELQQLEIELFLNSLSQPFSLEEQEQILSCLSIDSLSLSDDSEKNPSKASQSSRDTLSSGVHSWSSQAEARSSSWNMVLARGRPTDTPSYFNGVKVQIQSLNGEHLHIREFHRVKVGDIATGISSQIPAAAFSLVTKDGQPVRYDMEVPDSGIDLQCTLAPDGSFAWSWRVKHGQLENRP
Procedure: as §1, §2

Flt3 D835Y = Flt3 D835Y (Homo sapiens, UniProt P36888, D835Y); test: kinase mutants: Flt3 D835Y; assay type: binding; conditions: gain of function mutation
Procedure: as §1, §3

MKNK2 = target: T14, MKNK2 (Homo sapiens, UniProt Q9HBH9); test: panel of 402 kinases: MKNK2; assay type: binding; conditions: read-out: residual activity relatively to control
T14 construct: purchased KinomeScan
Procedure: as §1, §2

TAK1 = target: T15, TAK1 (Homo sapiens, UniProt O43318); test: panel of 402 kinases: TAK1; assay type: binding; conditions: read-out: residual activity relatively to control
T15 construct: purchased KinomeScan
Procedure: as §1, §2

MEK1 = MEK1 (Homo sapiens, UniProt Q02750); test: panel of 402 kinases: MEK1; assay type: binding; conditions: read-out: residual activity relatively to control
Sequence of MEK1 (Q02750 whole entry): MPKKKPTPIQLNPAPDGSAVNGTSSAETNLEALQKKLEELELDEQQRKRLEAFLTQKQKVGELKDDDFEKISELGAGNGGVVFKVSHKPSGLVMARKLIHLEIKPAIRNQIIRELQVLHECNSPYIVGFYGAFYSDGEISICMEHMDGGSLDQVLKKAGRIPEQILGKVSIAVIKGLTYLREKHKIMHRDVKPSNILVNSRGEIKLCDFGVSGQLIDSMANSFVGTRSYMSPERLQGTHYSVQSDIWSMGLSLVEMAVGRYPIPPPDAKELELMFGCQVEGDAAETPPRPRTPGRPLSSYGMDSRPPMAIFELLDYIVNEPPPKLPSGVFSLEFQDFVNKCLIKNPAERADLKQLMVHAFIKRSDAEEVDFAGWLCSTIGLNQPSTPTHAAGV
Procedure: as §1, §2

[1] = in vivo; cited from earlier work
[2] = from CCOCOc1cc(/C=C/C[C@@H]2OC(C)(C)O[C@@H]2C(OC(=O)c2ccccc2)/C(F)=C\C[C@@H](C)O)c(C(=O)O)c(OCOCC)c1; ester bond; DIAD/PPh3; toluene; 10.2 mM; 23.0 °C; 1.5 h; 2 steps
[3] = tested on: orthotopically implanted RENCA-LN cells; test: orthotopic murine renal cell carcinoma (RENCA) model, in vivo efficacy; conditions: untreated group had two animals; groups of 12
Procedure: RENCA-LN cells were obtained and cultured as described above. Sixty female BALB/c mice of 5 to 6 weeks were orthotopically implanted RENCA-LN cells into the left kidney (4×10^5 cells in 25 μl aliquots into the subcapsular space through a flank incision, Day 0). The mice were randomly divided into 5 groups of 12 mice each. On day 2, therapy was initiated. Animals in the vehicle control group (group 1) received 10 ml/kg Vehicle (PBS w/o Ca/Mg, 10% DMSO, 40% PEG-300) i.p. once daily until day 19. Animals of positive control group (group 2) received 40 mg/kg Sunitinib (Sutent®) p.o. once daily until day 20. Animals of treatment group 3 and 4 received 20 mg/kg of 3 once daily and every other day respectively (i.p.). Animals of treatment group 5 received 20 mg/kg of 5 once daily (i.p.). Due to partial weight loss, therapy in Groups 3 and 5 was suspended on days 11 and 12 and stopped on day 17. On day 20, the study was terminated and a necropsy performed. All animals were weighted, anaesthetised by isoflurane and killed by exsanguination. Two animals in group 1 were found dead on day 19 and 1 animal in group 3 and 5 on day 11 and 9 respectively. At necropsy, primary tumor weight and volume, lung weight and number of lung metastases were determined. Primary tumor tissues were collected and divided into two parts. One part of each tumor was snap-frozen in liquid nitrogen and stored at −80° C. whereas the other part was analyzed via ex vivo bioluminescence imaging. During the course of the study, the growth of the orthotopically implanted RENCA tumors was monitored on days 7, 14 and 19 using in vivo bioluminescence imaging. For this purpose, luciferin was injected intraperitoneally (i.p.) into the mice and light emission was measured post injection (10 min) using a NightOWL LB 981 bioluminescence imaging system (Berthold Technologies, Germany). The migration of RENCA tumor cells into the lung (metastasis) was analyzed post necropsy by counting nodules and using the luciferase assay. For this purpose, lungs were collected, homogenized, and assayed for luciferase activity using the kit from Promega (E1501) according to the manufacturer's instructions. Protein concentrations were determined using a Bradford assay and used to normalize luciferase activities (except for the primary tumor). A histological examination of the tumor vasculature was performed. For this purpose, cryosections of primary tumor tissues (thickness=5-10 μm) from the snap-frozen portion of the organ and blood vessels were visualized by immunohistochemical staining for CD 31 (PECAM-1; PharMingen, San Diego, Calif.). […] Statistical analysis of efficacy data was done using the Mann Whitney test.

Sequence of KIT (P10721 26-976): as the sequence (P10721 26-976 V559D/V654A) above, with D534V, A629V counted along it

## C[C@H]1C/C=C\C(=O)[C@@H](O)[C@@H](O)CCCc2cc(O)cc(O)c2C(=O)O1 [1afh]
KIT
  remaining activity at 1 µM: < 10%
Flt3
  remaining activity at 1 µM: < 10%
KIT V559D, V654A
  activity against dual mutation: not active
NLK
  inhibition: not inhibited
Panel of kinases (402)
  number of kinases outside of the set of 46 predicted kinases showing significant inhibition (STK36 and PRKD2): two
Panel of kinases (402); 31 of the 46 predicted kinases
  number of kinases out of 31 with more than 50% residual activity: 11
MEK2
  remaining activity at 1 µM: < 10%
KIT D816V
  activity against mutant: retained their activity
ERK1
  inhibition: not inhibited
KIT L576P
  activity against mutant: retained their activity
KIT V559D, T670I
  activity against dual mutation: not active
GAK
  remaining activity at 1 µM: < 10%
TGFR2
  remaining activity at 1 µM: < 10%
MKNK1
  remaining activity at 1 µM: < 10%
Flt3 K663Q
  sensitivity of mutant to the inhibitors: remained equally sensitive
CDKL5
  inhibition: not inhibited
GSK3β
  inhibition: not inhibited
Flt3 N841L
  sensitivity of mutant to the inhibitors: remained equally sensitive
PDGFRβ
  remaining activity at 1 µM: < 10%
KIT V559D
  activity against mutant: retained their activity
Flt1
  remaining activity at 1 µM: < 10%
PDGFRα
  remaining activity at 1 µM: < 10%
PRP4
  inhibition: not inhibited
NIK
  inhibition: not inhibited
Flt3 D835Y
  activity against mutant compared with wild type: more active than against the wild type
MKNK2
  remaining activity at 1 µM: < 10%
TAK1
  remaining activity at 1 µM: < 10%
MEK1
  remaining activity at 1 µM: < 10%

## CCOc1cc2ncc(C#N)c(Nc3ccc(F)c(Cl)c3)c2cc1NC(=O)/C=C/CN(C)C [EKB-569]
[1]
  safety in phase I clinical trial: safe

## CCOCOc1cc2c(c(OCOCC)c1)C(=O)O[C@@H](C)C/C=C(/F)C(OC(=O)c1ccccc1)[C@H]1OC(C)(C)O[C@H]1C/C=C/2 (stereo partly shown)
[2]
  ring closure, yield of all isomers: 74%

## CCN(CC)CCNC(=O)c1c(C)[nH]c(/C=C2\C(=O)Nc3ccc(F)cc32)c1C [sunitinib, reference compound]
[3]
  animals having a high count of lung metastatic nodules: 5
